Reference: ChEMBL document CHEMBL1129702, “Synthesis and pharmacological profile of new 1,3-disubstituted cyclohexanes as leukotriene B4 receptor antagonists” (Bioorg Med Chem Lett, 1996)

Assays:
[1] = target: T1, Leukotriene B4 receptor 1 (Homo sapiens, UniProt Q15722); test: Compound was evaluated for inhibitory activity against LTB4 receptor in human neutrophil membranes using [3H]- LTB4 as radioligand; assay type: cell membranes
[2] = target: T1, Leukotriene B4 receptor 1; test: Compound was evaluated for relative binding affinity against LTB4 receptor in human neutrophil membranes using [3H]- LTB4 as radioligand relative to leukotriene B4; assay type: cell membranes

T1 sequence (Q15722 whole entry): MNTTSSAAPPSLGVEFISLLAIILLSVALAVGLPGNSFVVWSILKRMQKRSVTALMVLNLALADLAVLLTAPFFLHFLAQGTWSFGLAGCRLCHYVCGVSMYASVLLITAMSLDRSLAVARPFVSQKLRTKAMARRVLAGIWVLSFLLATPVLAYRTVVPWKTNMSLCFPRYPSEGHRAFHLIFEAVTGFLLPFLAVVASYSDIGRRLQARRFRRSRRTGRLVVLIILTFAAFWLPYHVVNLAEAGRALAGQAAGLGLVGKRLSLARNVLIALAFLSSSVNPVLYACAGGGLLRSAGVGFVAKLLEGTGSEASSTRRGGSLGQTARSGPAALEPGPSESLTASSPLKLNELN

Compound | IC50 [1] [µM] | relative binding affinity (RBA) [2]
CCCCCC(O)/C=C/[C@H]1CCC[C@@](O)(CCCC(=O)O)C1 (stereo not given in full) | 70 | –
CCCCCC(O)/C=C/[C@H]1CCC[C@@](O)(CC(=O)O)C1 (stereo not given in full) | 8 | 0.001
O=C(O)C[C@]1(O)CCC[C@H](/C=C/C(O)CCCCc2ccccc2)C1 (stereo in doubt; 1d1) [listing 2 of 2 here] | – | 0.025
O=C(O)C[C@]1(O)CCC[C@H](/C=C/C(O)CCCCc2ccccc2)C1 (stereo in doubt; 1d2) | 70 | –
O=C(O)C[C@]1(O)CCC[C@H](/C=C/C(O)CCCCc2ccccc2)C1 (stereo in doubt; 1d) [listing 2 of 2 here] | – | 0.01

Next, values leading:

IC50 [1] [µM] | relative binding affinity (RBA) [2] | Compound
1 | 0.008 | CCCCCCCCC(O)/C=C/[C@H]1CCC[C@@](O)(CC(=O)O)C1 (stereo not given in full)
0.3 | – | O=C(O)C[C@]1(O)CCC[C@H](/C=C/C(O)CCCCc2ccccc2)C1 (stereo in doubt; 1d1) [listing 1 of 2 here]
0.8 | – | O=C(O)C[C@]1(O)CCC[C@H](/C=C/C(O)CCCCc2ccccc2)C1 (stereo in doubt; 1d) [listing 1 of 2 here]
